# From the supplement of paper PMC10307832
# Experiments:
# Test in all cases: relative viability (nuclei count vs DMSO), 5 days (fraction); higher = more cells survive
# [1] = system: HCC-366
# Summary of the method: (§1)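 The day after seeding in 1536-well plates, lung cancer cell lines were treated by pin tool with a single drug, or with a fixed anchor-drug dose together with five library-drug doses (not always all listed) in √10 steps. After 5 days, a combined fix-and-stain solution (final 0.05% Triton X-100, 1% formaldehyde, 1 ug/ml Hoechst) was added. Nuclei counted on 4× images gave relative viability as treated counts over vehicle counts, reported as the median of duplicate plates.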
# [2] = system: CAL-12T
# Summary of the method: as §1
# [3] = system: NCI-H441
# Summary of the method: as §1
# [4] = system: COR-L 105
# Summary of the method: as §1
# [5] = system: NCI-H661
# Summary of the method: as §1
# [6] = system: NCI-H3122
# Summary of the method: as §1
# [7] = system: NCI-H2009
# Summary of the method: as §1
# [8] = system: NCI-H838
# Summary of the method: as §1
# [9] = system: COR-L23
# Summary of the method: as §1
# [10] = system: LU99A
# Summary of the method: as §1
# [11] = system: 201T
# Summary of the method: as §1
# [12] = system: NCI-H727
# Summary of the method: as §1
# [13] = system: LK-2
# Summary of the method: as §1
# [14] = system: EKVX
# Summary of the method: as §1
# [15] = system: HARA
# Summary of the method: as §1
# [16] = system: BEN
# Summary of the method: as §1
# [17] = system: NCI-H1437
# Summary of the method: as §1
# [18] = system: PC-14
# Summary of the method: as §1
# [19] = system: NCI-H1666
# Summary of the method: as §1
# [20] = system: NCI-H2023
# Summary of the method: as §1
# [21] = system: ABC-1
# Summary of the method: as §1
structure (smiles),measurement,setting,value
COc1cc(N2CCC(C(N)=O)CC2)ccc1Nc1nc(N)c(Cl)c(Nc2ccccc2S(=O)(=O)C(C)C)n1 [HG-5-88-01] + C[C@]1(O)C[C@@H](c2nc(-c3ccc4ccc(-c5ccccc5)nc4c3)c3c(N)nccn32)C1 [Linsitinib] (partner 1 µM),relative viability,[1]; first compound 0.04 µM,0.573
same,relative viability,[1]; first compound 0.1265 µM,0.558
same,relative viability,[1]; first compound 0.4 µM,0.492
same,relative viability,[1]; first compound 1.265 µM,0.608
same,relative viability,[1]; first compound 4 µM,0.912
same,relative viability,[2]; first compound 0.04 µM,0.773
same,relative viability,[2]; first compound 0.1265 µM,0.592
same,relative viability,[2]; first compound 0.4 µM,0.78
same,relative viability,[2]; first compound 1.265 µM,0.561
same,relative viability,[2]; first compound 4 µM,0.726
same,relative viability,[3]; first compound 0.04 µM,0.662
same,relative viability,[3]; first compound 0.1265 µM,0.536
same,relative viability,[3]; first compound 0.4 µM,0.821
same,relative viability,[3]; first compound 1.265 µM,0.399
same,relative viability,[3]; first compound 4 µM,0.586
same,relative viability,[4]; first compound 0.04 µM,0.921
same,relative viability,[4]; first compound 0.1265 µM,0.966
same,relative viability,[4]; first compound 0.4 µM,1.04
same,relative viability,[4]; first compound 1.265 µM,0.961
same,relative viability,[4]; first compound 4 µM,0.751
same,relative viability,[5]; first compound 0.04 µM,0.586
same,relative viability,[5]; first compound 0.1265 µM,0.624
same,relative viability,[5]; first compound 0.4 µM,0.682
same,relative viability,[5]; first compound 4 µM,0.669
same,relative viability,[6]; first compound 0.04 µM,0.914
same,relative viability,[6]; first compound 0.1265 µM,0.379
same,relative viability,[6]; first compound 0.4 µM,0.197
same,relative viability,[6]; first compound 1.265 µM,0.2
same,relative viability,[6]; first compound 4 µM,0.226
same,relative viability,[7]; first compound 0.04 µM,1.23
same,relative viability,[7]; first compound 0.1265 µM,1.14
same,relative viability,[7]; first compound 0.4 µM,1.23
same,relative viability,[7]; first compound 1.265 µM,1.12
same,relative viability,[7]; first compound 4 µM,1.17
same,relative viability,[8]; first compound 0.04 µM,0.972
same,relative viability,[8]; first compound 0.1265 µM,1.07
same,relative viability,[8]; first compound 0.4 µM,0.885
same,relative viability,[8]; first compound 1.265 µM,0.915
same,relative viability,[8]; first compound 4 µM,0.956
same,relative viability,[9]; first compound 0.04 µM,0.885
same,relative viability,[9]; first compound 0.1265 µM,0.888
same,relative viability,[9]; first compound 0.4 µM,0.872
same,relative viability,[9]; first compound 1.265 µM,0.738
same,relative viability,[9]; first compound 4 µM,0.757
same,relative viability,[10]; first compound 0.04 µM,0.552
same,relative viability,[10]; first compound 0.1265 µM,0.535
same,relative viability,[10]; first compound 0.4 µM,0.531
same,relative viability,[10]; first compound 1.265 µM,0.578
same,relative viability,[10]; first compound 4 µM,0.589
same,relative viability,[11]; first compound 0.04 µM,1.02
same,relative viability,[11]; first compound 0.1265 µM,1.04
same,relative viability,[11]; first compound 0.4 µM,1.04
same,relative viability,[11]; first compound 1.265 µM,0.945
same,relative viability,[11]; first compound 4 µM,1.19
same,relative viability,[12]; first compound 0.04 µM,0.337
same,relative viability,[12]; first compound 0.1265 µM,0.336
same,relative viability,[12]; first compound 0.4 µM,0.179
same,relative viability,[12]; first compound 1.265 µM,0.221
same,relative viability,[12]; first compound 4 µM,0.324
same,relative viability,[13]; first compound 0.04 µM,0.591
same,relative viability,[13]; first compound 0.1265 µM,0.519
same,relative viability,[13]; first compound 0.4 µM,0.634
same,relative viability,[13]; first compound 4 µM,0.768
same,relative viability,[14]; first compound 0.04 µM,0.972
same,relative viability,[14]; first compound 0.1265 µM,1.11
same,relative viability,[14]; first compound 0.4 µM,0.889
same,relative viability,[14]; first compound 4 µM,1.03
same,relative viability,[15]; first compound 0.04 µM,0.946
same,relative viability,[15]; first compound 0.1265 µM,0.916
same,relative viability,[15]; first compound 0.4 µM,0.909
same,relative viability,[15]; first compound 1.265 µM,1
same,relative viability,[15]; first compound 4 µM,0.92
same,relative viability,[16]; first compound 0.04 µM,0.817
same,relative viability,[16]; first compound 0.1265 µM,0.968
same,relative viability,[16]; first compound 0.4 µM,0.899
same,relative viability,[16]; first compound 1.265 µM,0.767
same,relative viability,[16]; first compound 4 µM,1.17
same,relative viability,[17]; first compound 0.04 µM,1.04
same,relative viability,[17]; first compound 0.1265 µM,1.04
same,relative viability,[17]; first compound 0.4 µM,0.926
same,relative viability,[17]; first compound 1.265 µM,0.996
same,relative viability,[17]; first compound 4 µM,1.18
same,relative viability,[18]; first compound 0.04 µM,0.977
same,relative viability,[18]; first compound 0.1265 µM,1.02
same,relative viability,[18]; first compound 0.4 µM,0.955
same,relative viability,[18]; first compound 1.265 µM,0.917
same,relative viability,[18]; first compound 4 µM,0.331
same,relative viability,[19]; first compound 0.04 µM,0.958
same,relative viability,[19]; first compound 0.1265 µM,0.882
same,relative viability,[19]; first compound 0.4 µM,0.93
same,relative viability,[19]; first compound 1.265 µM,0.76
same,relative viability,[19]; first compound 4 µM,0.581
same,relative viability,[20]; first compound 0.04 µM,0.695
same,relative viability,[20]; first compound 0.1265 µM,0.683
same,relative viability,[20]; first compound 0.4 µM,0.619
same,relative viability,[20]; first compound 1.265 µM,0.539
same,relative viability,[20]; first compound 4 µM,0.762
same,relative viability,[21]; first compound 0.04 µM,0.679
same,relative viability,[21]; first compound 0.1265 µM,0.894
same,relative viability,[21]; first compound 0.4 µM,0.815
same,relative viability,[21]; first compound 1.265 µM,0.668
same,relative viability,[21]; first compound 4 µM,1.01
